Assay results published in patent US9198875B2, “Controlled delivery of bioactive agents from decomposable films” (Massachusetts Institute of Technology, priority 2008, dated 2015).
In brackets after ≈: the same amount, converted by molar mass. Read-outs that look alike come from different tables or passages of the source.

Assays:
[1] = Release of small molecules from polymeric cyclodextrin-containing LbL films in phosphate buffer (fluorescence spectroscopy); assay type: physicochemical; conditions: 20 bilayers; for Release Rate: from poly A3/poly(BCD) films, phosphate buffer pH 7.4
Procedure: Release profiles were investigated by monitoring the release of the small molecule using a fluorimeter and the degradation of non-radiolabeled films. For drug release experiments, 20 bilayer films were constructed using carboxymethylbeta-cyclodextrin polymer:drug conjugate solution. The deposition solutions were prepared by combining 25 μM carboxymethylbeta-cyclodextrin polymers solution in 0.1 M sodium acetate buffer (1 Mn=8,000), with the various small molecules. After fabrication, each twenty bilayer film was immersed in 10 mL phosphate buffer solution (pH 7.4, 137 mM NaCl, 2.7 mM KCl, 10 mM Na2HPO4). A 1 mL sample was extracted at various time points and analyzed via fluorescence spectroscopy. Degradation vials were tightly capped between sample extractions to prevent evaporation of the buffer solution. Raw spectrum data were converted to micrograms (μg) of drug released using a calibration curve for a given molecule at a defined emission wavelength.
Poly(BCD)-prodan inclusion complexes were made by dissolving prodan in poly(BCD) as described for poly(BCD)-ciprofloxacin inclusion complexes in Example 3. (Poly 1/poly(BCD)-prodan)20 films were constructed by layer-by-layer deposition and prodan release studies were conducted as described in Example 1.
Formation of poly(BCD): drug inclusion complexes and film construction were achieved by methods as described in Examples 1-3; release studies were performed as described in Example 4. Solubility values and complexation coefficients were determined and/or calculated according to previously published methods (Brewster et al. 2007. “Cyclodextrins as pharmaceutical solubilizers.” Advanced Drug Delivery. 59: 645-666).

[2] = Solubility of drugs in water and complexed with cyclodextrins; assay type: physicochemical
cyclooxygenase (COX) = test: Inhibition of cyclooxygenase by film release buffer in A549 cells, prostaglandin E2 concentration measured; assay type: cell-based, human; conditions: A549 cells exposed to aliquots of release buffer, buffer replaced every 24 hours
Excerpt: To determine if polymeric cyclodextrin alters drug activity, the inhibition of cyclooxygenase (COX) by diclofenac was investigated. COX is the rate limiting enzyme in the production of prostaglandins, which are important in homeostasis and inflammatory pathways (T. D. Warner et al., Proceedings of the National Academy of Sciences of the United States of America 1999, 96, 9966). A549 human lung carcinoma cells were exposed to aliquots of release buffer, and prostaglandin E2 concentration was measured. In the experiment, the release buffer was replaced every 24 hours, so that time points measured the activity of the drug released during each specific 24 hour period. […] The approach here is a utilization of a charged polymeric carrier capable of facile reversible complexation with the drug of choice in alternation with a degradable polyion. Charged cyclodextrin polymers were used for the trapping of cyclodextrin-drug complexes in stable, surface eroding films capable of drug release within the cyclodextrin carrier without altering activity. […] This technology can be applied to nanomedicine coatings for applications in personalized medicine, transdermal delivery, medical devices, nanoparticulate carriers, prosthetic implants, as well as small molecules for imaging, agriculture, and basic scientific research.

[3] = Complexation coefficients of drugs with cyclodextrins; assay type: physicochemical; conditions: calculated from solubility values
[4] = Release of 14C-dextran sulfate from LbL films in phosphate buffer (scintillation counting); assay type: physicochemical; conditions: films built with poly A3, 20 bilayers, phosphate buffer pH 7.4; approximately linear kinetics
Procedure: Release profiles were investigated by monitoring the release of ^14C-dextran sulfate and the degradation of non-radiolabeled films. For drug release experiments, 20 bilayer radiolabeled films were constructed using ^14C-dextran sulfate solution. The radiolabled deposition solutions were prepared by combining ^14C-dextran sulfate (1.5 mCi/g, Mn=8,000), unlabeled dextran sulfate (Mn=8,000), and 100 mM acetate buffer to yield a total concentration of dextran sulfate (unlabeled plus labeled) to 2 mg/mL (1 μCi/mL ^14C). After fabrication, each twenty bilayer film was immersed in 30 mL phosphate buffer solution (pH 7.4, 137 mM NaCl, 2.7 mM KCl, 10 mM Na2HPO4). A 1 mL sample was extracted at various time points and analyzed via scintillation counting. Scintillation counting was performed on a Tri-carb liquid scintillation counter (Model U2200) and the amount of radiolabel in each sample vial was measured using ^14C protocol. Degradation vials were tightly capped between sample extractions to prevent evaporation of the buffer solution. Raw data (disintegrations per minute, DPM) were converted to micrograms (μg) of drug released using the conversion factor 2.2×10^6 DPM=1 μCi, the specific radioactivity of the drug, and knowledge of the ratio of total drug to labeled drug in the deposition solution.

[5] = drug complexed with cyclodextrins, aqueous with cosolvent or surfactant or cyclodextrin, read-out: St, solubility complexed with cyclodextrins

| Release Rate [1] [ng/h] | Kc, complexation coefficient [3] [M⁻¹] | Molecule | solubility [2, 5] [µg/mL] | further results |
| --- | --- | --- | --- | --- |
|  |  | O=C(O)c1cn(C2CC2)c2cc(N3CCNCC3)c(F)cc2c1=O [Ciprofloxacin] |  | time through which ciprofloxacin continued to be released (latest time point tested) ([1]; poly 1/poly(BCD)-ciprofloxacin films, phosphate buffer): ≥ 69.3 h |
| 4 | 4930 | CC(C(=O)O)c1ccc(-c2ccccc2)c(F)c1 (stereo not drawn) [Flurbiprofen] | 540 (≈ 2210 µM) | S0, solubility in water ([2]; in water): 8 µg/mL |
| 1 | 4300 | COc1ccc2cc([C@H](C)C(=O)O)ccc2c1 [Naproxen] |  |  |
|  |  | dextran sulfate |  | time span over which dextran sulfate continued to be released [4]: at least 8 days |

| Molecule | Release Rate [1] [ng/h] | Kc, complexation coefficient [3] [M⁻¹] | solubility [2, 5] [µg/mL] | further results |
| --- | --- | --- | --- | --- |
| O=C(O)Cc1ccccc1Nc1c(Cl)cccc1Cl [Diclofenac] | 5 |  | 2800 (≈ 9450 µM) | solubility ([2]; in water, read-out: S0, solubility in water): 2 µg/mL (≈ 6.75 µM); activity of released drug: COX inhibition, suppressed prostaglandin production (cyclooxygenase (COX)): highly active |
